Measured values reported in patent US11753397B2, “Cereblon binders for the degradation of ikaros” (C4 Therapeutics, Inc., priority 2018, dated 2023).

Test system: NCIH929.1 cells
Test: Cell viability assay (CellTiter-Glo 2.0, ATP quantification)
Type: cell-based
Conditions: NCIH929.1 cell viability, CellTiter-Glo 2.0, 96 hr incubation, top concentration 1 μM
Procedure: Example 59. Cell Viability Assay
RPMI 1640 medium, fetal bovine serum (FBS) and 2-mercaptoethanol were purchased from Gibco (Grand Island, N.Y., USA). CellTiter-Glo® 2.0 Assay was purchased from Promega (Madison, Wis., USA). NCIH929.1 cell line was purchased from ATCC (Manassas, Va., USA). Cell culture flasks and 384-well microplates were acquired from VWR (Radnor, Pa., USA).
NCIH929.1 cell viability was determined based on quantification of ATP using CellTiter-Glo® 2.0 luminescent Assay kit, which signals the presence of metabolically-active cells. Briefly, the test compound was added to 384-well plates at a top concentration of 1 μM with 10 points, half log titration in duplicates. NCIH929.1 cells were seeded into the 384-well plates in RPMI medium containing 10% FBS and 0.05 mM 2-mercaptoethanol at a cell density of 750 cells per well. Cells treated in the absence of the test compound were the negative control and cells treated in the absence of CellTiter-Glo® 2.0 were the positive control. At the same day of compound treatment, CellTiter-Glo® 2.0 was added to a plate with cells treated in the absence of the test compound to establish Cytostatic control value (CT0). Cells treated with the test compound were incubated at 37° C. with 5% CO2 for 96 hr. CellTiter-Glo reagent was then added to the cells and luminescence was acquired on EnVision™ Multilabel Reader (PerkinElmer, Santa Clara, Calif., USA).

With `O=C1CCC(N2C(=O)c3cccc(NCc4cnn(C5CCN(C(=O)[C@@H]6CCCO6)CC5)c4)c3C2=O)C(=O)N1` (stereo partly drawn) [Compound 59, 2-(2,6-dioxopiperidin-3-yl)-4-(((1-(1-((S)-tetrahydrofuran-2-carbonyl)piperidin-4-yl)-1H-pyrazol-4-yl)methyl)amino)isoindoline-1,3-dione] as the molecule, how does the GI50 read?
Its GI50 is < 100 nM.

With `CC1(C(=O)N2CCC(n3cc(CNc4cccc5c4C(=O)N(C4CCC(=O)NC4=O)C5=O)c(Cl)n3)CC2)CCC1` (stereo not drawn) [Compound 191, 4-[[3-chloro-1-[1-(1-methylcyclobutanecarbonyl)-4-piperidyl]pyrazol-4-yl]methylamino]-2-(2,6-dioxo-3-piperidyl)isoindoline-1,3-dione] as the molecule, how does the GI50 read?
The GI50 was < 1 nM.

`O=C1CCC(N2C(=O)c3cccc(NCc4cnn(C5CCN(C(=O)c6cccc(Cn7cccn7)c6)CC5)c4)c3C2=O)C(=O)N1` (stereo not drawn) [Compound 119, 4-(((1-(1-(3-((1H-pyrazol-1-yl)methyl)benzoyl)piperidin-4-yl)-1H-pyrazol-4-yl)methyl)amino)-2-(2,6-dioxopiperidin-3-yl)isoindoline-1,3-dione] was tested. Which GI50 did it give?
Its GI50 is < 100 nM.

`O=C1CCC(N2C(=O)c3cccc(NCc4cnn(C5CCN(CC6CCCC6)CC5)c4)c3C2=O)C(=O)N1` (stereo not drawn) [Compound 128, 4-(((1-(1-(cyclopentylmethyl)piperidin-4-yl)-1H-pyrazol-4 yl)methyl)amino)-2-(2,6-dioxopiperidin-3-yl)isoindoline-1,3-dione] was tested. Which GI50 did it give?
Its GI50 is < 100 nM.

`CC1(C)C[C@@H](n2cc(CNc3cccc4c3C(=O)N(C3CCC(=O)NC3=O)C4=O)cn2)CCN1C(=O)C12C3C4C5C3C1C5C42` (stereo partly drawn) [Compound 197, 4-[[1-[(4S)-1-(Cubane-1-carbonyl)-2,2-dimethyl-4-piperidyl]pyrazol-4-yl]methylamino]-2-(2,6-dioxo-3-piperidyl)isoindoline-1,3-dione] was tested. Which GI50 did it give?
The GI50 was < 100 nM.

Which GI50 does the source give for `O=C1CCC(N2C(=O)c3cccc(NCc4cnn(C5CCN(C(=O)C6CC(F)(F)C6)CC5)c4)c3C2=O)C(=O)N1` (stereo not drawn) [Compound 29, 4-(((1-(1-(3,3-difluorocyclobutane-1-carbonyl)piperidin-4-yl)-1H-pyrazol-4-yl)methyl)amino)-2-(2,6-dioxopiperidin-3-yl)isoindoline-1,3-dione] here?
Its GI50 is < 100 nM.

Which GI50 does the source give for `CC1(CN2CCC(n3cc(CNc4cccc5c4C(=O)N(C4CCC(=O)NC4=O)C5=O)cn3)CC2)CCCC1` (stereo not drawn) [Compound 138, 2-(2,6-dioxopiperidin-3-yl)-4-(((1-(1-((1-methylcyclopentyl)methyl)piperidin-4-yl)-1H-pyrazol-4-yl)methyl)amino)isoindoline-1,3-dione] here?
Its GI50 is < 1 nM.

Which GI50 does the source give for `CC1(C(=O)N2CCC(n3cc(CNc4cccc5c4C(=O)N(C4CCC(=O)NC4=O)C5=O)cn3)CC2)CCC1` (stereo not drawn) [Compound 33, 2-(2,6-dioxopiperidin-3-yl)-4-(((1-(1-(1-methylcyclobutane-1-carbonyl)piperidin-4-yl)-1H-pyrazol-4-yl)methyl)amino)isoindoline-1,3-dione] here?
The GI50 was < 1 nM.

For `O=C1CCC(N2C(=O)c3cccc(NCc4cnn(C5CCN(CC6CCCCC6)CC5)c4)c3C2=O)C(=O)N1` (stereo not drawn) [Compound 127, 4-(((1-(1-(cyclohexylmethyl)piperidin-4-yl)-1H-pyrazol-4-yl)methyl)amino)-2-(2,6-dioxopiperidin-3-yl)isoindoline-1,3-dione], which GI50 is on record?
The GI50 was < 100 nM.

`O=C1CCC(N2C(=O)c3cccc(NCc4cnn(C5CCN(C(=O)C6CCN(C(=O)C7CCC7)CC6)CC5)c4)c3C2=O)C(=O)N1` (stereo not drawn) [Compound 112, 4-(((1-(1-(1-(cyclobutanecarbonyl)piperidine-4-carbonyl)piperidin-4-yl)-1H-pyrazol-4-yl)methyl)amino)-2-(2,6-dioxopiperidin-3-yl)isoindoline-1,3-dione] was tested. Which GI50 did it give?
The GI50 was < 100 nM.

With `O=C1CCC(N2C(=O)c3cccc(NCc4cnn(C5CCN(C(=O)C(F)F)CC5)c4)c3C2=O)C(=O)N1` (stereo not drawn) [Compound 10, 4-(((1-(1-(2,2-difluoroacetyl)piperidin-4-yl)-1H-pyrazol-4-yl)methyl)amino)-2-(2,6-dioxopiperidin-3-yl)isoindoline-1,3-dione] as the molecule, how does the GI50 read?
Its GI50 is < 100 nM.

How did the GI50 turn out when `O=C1CCC(N2C(=O)c3cccc(NCc4cnn(-c5ccccc5)c4)c3C2=O)C(=O)N1` (stereo not drawn) [Compound 145, 2-(2,6-dioxopiperidin-3-yl)-4-(((1-phenyl-1H-pyrazol-4-yl)methyl)amino)isoindoline-1,3-dione] was run?
Its GI50 is < 100 nM.

Which GI50 does the source give for `[2H][C@@]1(N2C(=O)c3cccc(NCc4cnn(C5CCN(C(=O)OC(C)(C)C)CC5)c4)c3C2=O)CCC(=O)NC1=O` (single isomer, unassigned) [Compound 185] here?
Its GI50 is < 100 nM.

`O=C1CCC(N2C(=O)c3cccc(NCc4cnn(C5CCN(C(=O)CC6CCN(C(=O)C7CCC7)CC6)CC5)c4)c3C2=O)C(=O)N1` (stereo not drawn) [Compound 126, 4-(((1-(1-(2-(1-(cyclobutanecarbonyl)piperidin-4-yl)acetyl)piperidin-4-yl)-1H-pyrazol-4-yl)methyl)amino)-2-(2,6-dioxopiperidin-3-yl)isoindoline-1,3-dione] was tested. Which GI50 did it give?
The GI50 was < 100 nM.

Which GI50 does the source give for `O=C1CCC(N2C(=O)c3cccc(NCc4cnn(C5CCN(C(=O)C6(F)CCC6)CC5)c4)c3C2=O)C(=O)N1` (stereo not drawn) [Compound 79, 2-(2,6-dioxopiperidin-3-yl)-4-(((1-(1-(1-fluorocyclobutane-1-carbonyl)piperidin-4-yl)-1H-pyrazol-4-yl)methyl)amino)isoindoline-1,3-dione] here?
The GI50 was < 100 nM.

How did the GI50 turn out when `CC(C)Cn1cc(CNc2cccc3c2C(=O)N(C2CCC(=O)NC2=O)C3=O)cn1` (stereo not drawn) [Compound 143, 2-(2,6-dioxopiperidin-3-yl)-4-(((1-isobutyl-1H-pyrazol-4-yl)methyl)amino)isoindoline-1,3-dione] was run?
The GI50 was > 100 nM.

How did the GI50 turn out when `[2H][C@]1(N2C(=O)c3cccc(NCc4cnn(C5CCN(C(=O)OC(C)(C)C)CC5)c4)c3C2=O)CCC(=O)NC1=O` (single isomer, unassigned) [Compound 186] was run?
The GI50 was < 100 nM.

With `O=C1CCC(N2C(=O)c3cccc(NCc4cnn(C5CCN(C(=O)[C@H]6CCCO6)CC5)c4)c3C2=O)C(=O)N1` (stereo partly drawn) [Compound 38, 2-(2,6-dioxopiperidin-3-yl)-4-(((1-(1-((R)-tetrahydrofuran-2-carbonyl)piperidin-4-yl)-1H-pyrazol-4-yl)methyl)amino)isoindoline-1,3-dione] as the molecule, how does the GI50 read?
Its GI50 is < 100 nM.

For `Cn1cc(CNc2cccc3c2C(=O)N(C2CCC(=O)NC2=O)C3=O)cn1` (stereo not drawn) [Compound 141, 2-(2,6-dioxopiperidin-3-yl)-4-(((1-methyl-1H-pyrazol-4-yl)methyl)amino)isoindoline-1,3-dione], which GI50 is on record?
Its GI50 is < 100 nM.

For `O=C1CCC(N2C(=O)c3cccc(NCc4cnn(C5CCN(C(=O)C6(c7ccccc7)COC6)CC5)c4)c3C2=O)C(=O)N1` (stereo not drawn) [Compound 69, 2-(2,6-dioxopiperidin-3-yl)-4-(((1-(1-(3-phenyloxetane-3-carbonyl)piperidin-4-yl)-1H-pyrazol-4-yl)methyl)amino)isoindoline-1,3-dione], which GI50 is on record?
Its GI50 is < 100 nM.

With `Cc1nn(C2CCN(C(=O)C3(C)CCC3)CC2)c(C)c1CNc1cccc2c1C(=O)N(C1CCC(=O)NC1=O)C2=O` (stereo not drawn) [Compound 171, 4-(((3,5-Dimethyl-1-(1-(1-methylcyclobutane-1-carbonyl)piperidin-4-yl)-1H-pyrazol-4-yl)methyl)amino)-2-(2,6-dioxopiperidin-3-yl)isoindoline-1,3-dione] as the molecule, how does the GI50 read?
The GI50 was < 100 nM.

How did the GI50 turn out when `CC(C)(C)n1cc(CNc2cccc3c2C(=O)N(C2CCC(=O)NC2=O)C3=O)cn1` (stereo not drawn) [Compound 144, 4-(((1-(tert-butyl)-1H-pyrazol-4-yl)methyl)amino)-2-(2,6-dioxopiperidin-3-yl)isoindoline-1,3-dione] was run?
Its GI50 is < 100 nM.

With `O=C1CCC(N2C(=O)c3cccc(NCc4cnn(C5CCN(C(=O)CC6CCOCC6)CC5)c4)c3C2=O)C(=O)N1` (stereo not drawn) [Compound 28, 2-(2,6-dioxopiperidin-3-yl)-4-(((1-(1-(2-(tetrahydro-2H-pyrazin-4-yl)acetyl)piperidin-4-yl)-1H-pyrazol-4-yl)methyl)amino)isoindoline-1,3-dione] as the molecule, how does the GI50 read?
The GI50 was < 100 nM.

With `O=C1CCC(N2C(=O)c3cccc(NCc4cnn(C5CCN(C(=O)CCC6CC6)CC5)c4)c3C2=O)C(=O)N1` (stereo not drawn) [Compound 21, 4-(((1-(1-(3-cyclopropylpropanoyl)piperidin-4-yl)-1H-pyrazol-4-yl)methyl)amino)-2-(2,6-dioxopiperidin-3-yl)isoindoline-1,3-dione] as the molecule, how does the GI50 read?
The GI50 was < 100 nM.

`O=C1CCC(N2C(=O)c3cccc(NCc4cnn(C5CCN(C(=O)C6(O)CCC6)CC5)c4)c3C2=O)C(=O)N1` (stereo not drawn) [Compound 84, 2-(2,6-dioxopiperidin-3-yl)-4-(((1-(1-(1-hydroxycyclobutane-1-carbonyl)piperidin-4-yl)-1H-pyrazol-4-yl)methyl)amino)isoindoline-1,3-dione] was tested. Which GI50 did it give?
The GI50 was < 100 nM.

`O=C1CCC(N2C(=O)c3cccc(NCc4cnn(C5CCN(C(=O)OCc6ccccc6)CC5)c4)c3C2=O)C(=O)N1` (stereo not drawn) [Compound 146, benzyl 4-(4-(((2-(2,6-dioxopiperidin-3-yl)-1,3-dioxoisoindolin-4-yl)amino)methyl)-1H-pyrazol-1-yl)piperidine-1-carboxylate] was tested. Which GI50 did it give?
The GI50 was < 100 nM.

`C#CC1(C(=O)N2CCC(n3cc(CNc4cccc5c4C(=O)N(C4CCC(=O)NC4=O)C5=O)cn3)CC2)CCC1` (stereo not drawn) [Compound 93, 2-(2,6-dioxopiperidin-3-yl)-4-(((1-(1-(1-ethynylcyclobutane-1-carbonyl)piperidin-4-yl)-1H-pyrazol-4-yl)methyl)amino)isoindoline-1,3-dione] was tested. Which GI50 did it give?
Its GI50 is < 1 nM.
